Data as given in patent US5807535A, “Metal complexes of hydroxyaryl containing aminocarboxylic acid chelating agents” (Australian Nuclear Science & Technology Organisation, priority 1992, dated 1998).
Values belong to the compound of their own block, whether it stands above or below them.

Key:
[1] = Serum stability of 166Dy/166Ho complex of (1); assay type: in vitro ADME; details: human serum, 37° C.
Protocol: The radiolabelling (1) is then incubated in human serum at 37° C. At various time intervals the aliquots are separated and monitored for UV absorbance and radioactivity. The data illustrated in FIG. 31 show the complex is stable for >46 hrs.

[2] = Serum stability of 99mTc complex of (1); assay type: in vitro ADME; details: first hour at 37° C., read-out: technetium lost from the chelator in serum
Protocol: A typical method of radiolabelling of the chelator was achieved by dissolving the chelator in a basic solution of saline. The pH was then adjusted to approx. 6 with HCl. Excess stannous chloride was added to the resultant solution followed by one equivalent volume of sodium ^99m TcO4 (10-50 mCi/ml). Final concentration of the chelator was approx. 1 mg/ml. The efficacy of labelling was determined by ITLC-SG. For each product only one main radiochemical species was observed. Each complex was diluted to 15 μCi/100 μl with saline. […] (See FIGS. 1A and 1B).

[3] = Serum stability of Copper-67 complexes; assay type: in vitro ADME
Protocol: The serum stability was determined for selected derivatives and typical procedure is as follows.
The ligand (1) was labelled with Cu-67 at a ligand:metal ratio of 4:1.

[4] = Effect of pH on complexation of 99mTc with ligand (5); assay type: physicochemical
Protocol: Radiolabelling with ^99m Tc was investigated over a range of pHs (3.0-10.0) (described in Table B). To ligand (5) (1.0 ml:1 mg/ml) dissolved in appropriate buffer was added an excess of stannous chloride (20 μl:2 mg/ml) in 0.1 N HCl. To this mixture is added an appropriate activity of ^99m TcO4 (20 μl) eluted from a technetium generator.
All reactions were carried out at room temperature.
Percent complexation was monitored by ITLC-SG using two solvent systems. […]

- serum stability (complex is stable for) [1]: > 46 h
- degraded at 1 h [2]: ≤ 15%
- further loss in serum ([3]; Cu-67, after 24 hours): no further loss
- degraded at 4 h ([3]; serum, Cu-67, initial 4 hours, read-out: loss in serum): 4%
SMILES: O=C(O)CN(CCN(CC(=O)O)CC(=O)Nc1ccccc1O)CC(=O)Nc1ccccc1O [Compound 1]

- complexation ([4]; 99mTc, pH 10.0): poor
- stability of product ([4]; 99mTc, pH 10.0): unstable
- stability of final product (stable for upto) ([4]; 99mTc, pH range 3.0-9.0): ≤ 2 h
- optimum pH of complexation ([4]; 99mTc, room temperature): 3.0-4.0 pH
- Percent 99mTc complexed ([4]; pH 3, 1 min): 89%
- Percent 99mTc complexed ([4]; pH 3, 3 min): 93%
- Percent 99mTc complexed ([4]; pH 3, 5 min): 90%
- Percent 99mTc complexed ([4]; pH 3, 10 min): 91%
- Percent 99mTc complexed ([4]; pH 3, 15 min): 90%
- Percent 99mTc complexed ([4]; pH 3, 30 min): 92%
- Percent 99mTc complexed ([4]; pH 3, 1 h): 92%
- Percent 99mTc complexed ([4]; pH 3, 2 h): 94%
- Percent 99mTc complexed ([4]; pH 4, 1 min): 94%
- Percent 99mTc complexed ([4]; pH 4, 3 min): 97%
- Percent 99mTc complexed ([4]; pH 4, 5 min): 92%
- Percent 99mTc complexed ([4]; pH 4, 10 min): 94%
- Percent 99mTc complexed ([4]; pH 4, 15 min): 96%
- Percent 99mTc complexed ([4]; pH 4, 30 min): 91%
- Percent 99mTc complexed ([4]; pH 4, 1 h): 100%
- Percent 99mTc complexed ([4]; pH 4, 2 h): 100%
- Percent 99mTc complexed ([4]; pH 5, 1 min): 84%
- Percent 99mTc complexed ([4]; pH 5, 3 min): 83%
- Percent 99mTc complexed ([4]; pH 5, 5 min): 91%
- Percent 99mTc complexed ([4]; pH 5, 10 min): 83%
- Percent 99mTc complexed ([4]; pH 5, 15 min): 81%
- Percent 99mTc complexed ([4]; pH 5, 30 min): 71%
- Percent 99mTc complexed ([4]; pH 5, 1 h): 85%
- Percent 99mTc complexed ([4]; pH 5, 2 h): 88%
- Percent 99mTc complexed ([4]; pH 6, 1 min): 80%
- Percent 99mTc complexed ([4]; pH 6, 3 min): 80%
- Percent 99mTc complexed ([4]; pH 6, 5 min): 83%
- Percent 99mTc complexed ([4]; pH 6, 10 min): 80%
- Percent 99mTc complexed ([4]; pH 6, 15 min): 82%
- Percent 99mTc complexed ([4]; pH 6, 30 min): 90%
- Percent 99mTc complexed ([4]; pH 6, 1 h): 85%
- Percent 99mTc complexed ([4]; pH 6, 2 h): 91%
- Percent 99mTc complexed ([4]; pH 7, 1 min): 73%
- Percent 99mTc complexed ([4]; pH 7, 3 min): 83%
- Percent 99mTc complexed ([4]; pH 7, 5 min): 81%
- Percent 99mTc complexed ([4]; pH 7, 10 min): 74%
- Percent 99mTc complexed ([4]; pH 7, 15 min): 87%
- Percent 99mTc complexed ([4]; pH 7, 30 min): 80%
- Percent 99mTc complexed ([4]; pH 7, 1 h): 83%
- Percent 99mTc complexed ([4]; pH 7, 2 h): 52%
- Percent 99mTc complexed ([4]; pH 8, 1 min): 76%
- Percent 99mTc complexed ([4]; pH 8, 3 min): 88%
- Percent 99mTc complexed ([4]; pH 8, 5 min): 81%
- Percent 99mTc complexed ([4]; pH 8, 10 min): 83%
- Percent 99mTc complexed ([4]; pH 8, 15 min): 87%
- Percent 99mTc complexed ([4]; pH 8, 30 min): 85%
- Percent 99mTc complexed ([4]; pH 8, 1 h): 77%
- Percent 99mTc complexed ([4]; pH 8, 2 h): 81%
- Percent 99mTc complexed ([4]; pH 9, 1 min): 90%
- Percent 99mTc complexed ([4]; pH 9, 3 min): 100%
- Percent 99mTc complexed ([4]; pH 9, 5 min): 94%
- Percent 99mTc complexed ([4]; pH 9, 10 min): 86%
- Percent 99mTc complexed ([4]; pH 9, 15 min): 100%
- Percent 99mTc complexed ([4]; pH 9, 30 min): 83%
- Percent 99mTc complexed ([4]; pH 9, 1 h): 85%
- Percent 99mTc complexed ([4]; pH 9, 2 h): 74%
- Percent 99mTc complexed ([4]; pH 10, 1 min): 15%
- Percent 99mTc complexed ([4]; pH 10, 3 min): 16%
- Percent 99mTc complexed ([4]; pH 10, 5 min): 11%
- Percent 99mTc complexed ([4]; pH 10, 10 min): 13%
- Percent 99mTc complexed ([4]; pH 10, 15 min): 9%
- Percent 99mTc complexed ([4]; pH 10, 1 h): 8%
- Percent 99mTc complexed ([4]; pH 10, 2 h): 8%
SMILES: Nc1ccc(O)c(NC(=O)CN(CCN(CC(=O)O)CC(=O)Nc2cc(N)ccc2O)CC(=O)O)c1 [Compound 5]
